Assay results as given in US20260217667A1, “AMYLOID TARGETING AGENTS” (Amydis, Inc., priority 2023, published 2026).

Key:
[1] = biological target: T1, synthetic aggregated amyloid beta (Aβ) (Homo sapiens, UniProt P05067); experiment: Fluorescence emission spectra of compounds with and without aggregated amyloid beta; format: binding; conditions: for Fold Increase at maximum emission (compound+Aβ/compound): 4 μM compound, 5 μM aggregated Aβ in 1×PBS; for Peak emission: aggregated Aβ
T1 construct: synthetic aggregated amyloid beta (Aβ)
T1 sequence (P05067 672-713 limits assumed): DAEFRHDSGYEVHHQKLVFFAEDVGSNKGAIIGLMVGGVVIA
Method: (§1) Emission spectra for compound 1 and compound 1a were collected after incubation of the compounds with and without aggregated amyloidogenic protein at specific excitation wavelengths (450 nm and 488 nm) employed in standard ocular imaging equipment. Amyloidogenic proteins (synthetic aggregated amyloid beta (Aβ), α-synuclein (ASYN), transthyretin (TTR), TAR DNA-binding protein 43 (TDP43), and phosphorylated tau (TAU)) were aggregated in vitro using the following procedure. The amyloidogenic protein was removed from the freezer and allowed to warm to room temperature, then 1 mg of amyloidogenic protein was dissolved in 215 μL of ddH2O for about 10-20 mins at room temperature. To the resulting solution, 2 mL of ddH2O was added to provide a 100 μM stock solution. A 100 μL aliquot was sampled and frozen (non-aggregated sample). The tubes were placed in a thermoshaker at 350 rpm for 3 days. Care was taken to avoid generating bubbles. Protein aggregation was confirmed by measuring binding to Thioflavin T (ThT). Aggregated protein was then portioned into 150 μL aliquots and stored at −80° C. The fluorescent emission spectra were measured as follows to determine binding of synthetic aggregated amyloid beta (Aβ), α-synuclein (ASYN), transthyretin (TTR), TAR DNA-binding protein 43 (TDP43), and phosphorylated tau (TAU) to test compounds described herein. The Shimadzu fluorimeter was turned on and allowed to warm up for ~60 minutes. The test compounds were then removed from the −20° C. freezer and were allowed to warm to room temperature. The 100 μM aggregated Aβ solution was then removed from the −80° C. freezer and also allowed to warm to room temperature. 250 μM solutions of each test compound in DMSO were then prepared. These were then used to prepare 4 μM solutions of each test compound, with and without 5 μM aggregated Aβ in 1×PBS, in triplicates. Using a cuvette, the fluorescent emission spectra were measured for each test compound+Aβ solution, employing a DMSO/PBS solution as a blank. Each sample was tested at an excitation of 450 nm and 488 nm. Fluorescent emission spectra were then collected for each 4 μM test compound solution alone. The resulting data were used to plot intensity vs. wavelength for each emission scan. The fold increase at maximum emission (compound+Aβ/compound) is calculated for each test compound.

[2] = biological target: TAR DNA-binding protein 43 (TDP43) (Homo sapiens, UniProt Q13148); experiment: Fluorescence emission spectra of compounds with and without aggregated TDP43
Chain of TAR DNA-binding protein 43 (TDP43) (Q13148 whole entry): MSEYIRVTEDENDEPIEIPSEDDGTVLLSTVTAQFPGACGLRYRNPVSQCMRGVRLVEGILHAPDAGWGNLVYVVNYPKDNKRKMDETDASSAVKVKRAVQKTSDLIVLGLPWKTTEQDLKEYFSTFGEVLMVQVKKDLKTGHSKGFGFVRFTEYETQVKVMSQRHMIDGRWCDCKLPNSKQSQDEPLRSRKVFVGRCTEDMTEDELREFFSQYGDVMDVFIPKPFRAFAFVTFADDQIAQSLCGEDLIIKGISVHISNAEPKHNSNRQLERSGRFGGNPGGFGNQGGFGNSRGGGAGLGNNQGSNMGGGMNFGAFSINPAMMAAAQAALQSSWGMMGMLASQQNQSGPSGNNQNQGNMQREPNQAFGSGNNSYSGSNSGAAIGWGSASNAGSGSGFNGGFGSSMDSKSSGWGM
Method: as §1

[3] = system: amyloidogenic aggregates (Aβ, ASYN, TTR, TDP43, 3RTau, and 4RTau); experiment: In vitro binding to amyloidogenic aggregates, summary statement; conditions: excitation 450 nm or 488 nm
Method: Amyloidogenic proteins (synthetic aggregated amyloid beta (Aβ), α-synuclein (ASYN), transthyretin (TTR), TAR DNA-binding protein 43 (TDP43), and phosphorylated tau (TAU)) were aggregated in vitro using the following procedure. The amyloidogenic protein was removed from the freezer and allowed to warm to room temperature, then 1 mg of amyloidogenic protein was dissolved in 215 μL of ddH2O for about 10-20 mins at room temperature. To the resulting solution, 2 mL of ddH2O was added to provide a 100 μM stock solution. A 100 μL aliquot was sampled and frozen (non-aggregated sample). The tubes were placed in a thermoshaker at 350 rpm for 3 days. Care was taken to avoid generating bubbles. Protein aggregation was confirmed by measuring binding to Thioflavin T (ThT). Aggregated protein was then portioned into 150 μL aliquots and stored at −80° C.
The fluorescent emission spectra were measured as follows to determine binding of synthetic aggregated amyloid beta (Aβ), α-synuclein (ASYN), transthyretin (TTR), TAR DNA-binding protein 43 (TDP43), and phosphorylated tau (TAU) to test compounds described herein. […] Using a cuvette, the fluorescent emission spectra were measured for each test compound+Aβ solution, employing a DMSO/PBS solution as a blank. […] The fold increase at maximum emission (compound+Aβ/compound) is calculated for each test compound. […]

transthyretin (TTR) = transthyretin (TTR) (Homo sapiens, UniProt P02766); experiment: Fluorescence emission spectra of compounds with and without aggregated transthyretin; format: binding
Method: as §1

α-synuclein (ASYN) = α-synuclein (ASYN) (Homo sapiens, UniProt P37840); experiment: Fluorescence emission spectra of compounds with and without aggregated α-synuclein; format: binding
Method: as §1

4RTau = experiment: Fluorescence emission spectra of compounds with and without aggregated 4RTau; format: binding
Method: as §1

3RTau = experiment: Fluorescence emission spectra of compounds with and without aggregated 3RTau; format: binding
Method: as §1

Row | SMILES | Fold Increase at maximum emission (compound+Aβ/compound) ([1]; excitation 450 nm) | Peak emission ([1]; excitation 450 nm) | Fold Increase at maximum emission (compound+Aβ/compound) ([1]; excitation 488 nm) | Peak emission ([1]; excitation 488 nm) | Fold Increase at maximum emission ([2]; excitation 450 nm) | Peak emission ([2]; excitation 450 nm) | Fold Increase at maximum emission ([2]; excitation 488 nm) | Peak emission ([2]; excitation 488 nm) | Binding to all amyloidogenic aggregates tested [3] | Fold Increase at maximum emission (transthyretin (TTR); excitation 450 nm) | Peak emission (transthyretin (TTR); excitation 450 nm) | Fold Increase at maximum emission (transthyretin (TTR); excitation 488 nm) | Peak emission (transthyretin (TTR); excitation 488 nm) | Fold Increase at maximum emission (α-synuclein (ASYN); excitation 450 nm) | Peak emission (α-synuclein (ASYN); excitation 450 nm) | Fold Increase at maximum emission (α-synuclein (ASYN); excitation 488 nm) | Peak emission (α-synuclein (ASYN); excitation 488 nm) | Fold Increase at maximum emission (4RTau; excitation 450 nm) | Fold Increase at maximum emission (4RTau; excitation 488 nm) | Fold Increase at maximum emission (3RTau; excitation 450 nm) | also measured
1 | N#C/C(=C\c1ccc2cc(N3CCCCC3)ccc2c1)C(=O)CCCOCCOCCO [Compound 1, (E)-6-(2-(2-hydroxyethoxy)ethoxy)-3-oxo-2-((6-(piperidin-1-yl)naphthalen-2-yl)methylene)hexanenitrile] | 10.16 | 559 | 9.11 | 556 | 15.33 | 547 | 18.32 | 556 | successfully bound | 5.18 | 553 | 7.21 | 560 | 105.50 | 552 | 109.97 | 557 | 14.35 | 29.25 | 68.04 | Fold Increase at maximum emission (3RTau; excitation 488 nm): 69.31
2 | N#C/C(=C\c1ccc2cc(N3CCCCC3)ccc2c1)C(=O)CCC(O)CO (stereo not drawn) [Compound 1a, (E)-6,7-dihydroxy-3-oxo-2-((6-(piperidin-1-yl)naphthalen-2-yl)methylene)heptanenitrile] | 9.48 | 554 | 19.60 | 559 | 23.23 | 551 | 20.40 | 551 | successfully bound | 4.67 | 550 | 7.35 | 557 | 120.92 | 554 | 190.64 | 554 | 22.19 | 22.48 | 84.37 | Fold Increase at maximum emission (3RTau; excitation 488 nm): 103.65
